Key:
Assay in all cases: NCI 60 cell panel SRB screen
RXF 393 = format: cell-based; conditions: Homo sapiens
MDA-MB-468 = format: cell-based; conditions: Homo sapiens
Description: The human tumor cell lines of the cancer-screening panel were grown in RPMI 1640 medium containing 5% fetal bovine serum and […] L-glutamine. For a typical screening experiment, cells are inoculated into 96 well microtiter plates in 100 ml at plating densities ranging from 5000 to 40,000 cells/well depending on the doubling time of individual cell lines. After cell inoculation, the microtiter plates are incubated at 37 °C, 5% CO2, 95% air and 100%
relative humidity for 24 h prior to addition of experimental drugs. After 24 h, two plates of each cell line are fixed in situ with TCA, to represent a measurement of the cell population for each cell line at the time of drug addition (Tz). Experimental drugs are dissolved in dimethyl sulfoxide at 400-fold the desired final maximum test concentration and stored frozen prior to use. At the time of drug addition, an aliquot of frozen concentrate is thawed and diluted to twice the desired final maximum test concentration with complete medium containing […] Gentamicin. Additional four, 10-fold or ½log serial dilutions are made to provide a total of five drug concentrations plus control. Aliquots of […] of these different drug dilutions are added to the appropriate microtiter wells already containing 100 ml of medium, resulting in the required final drug concentrations. Following drug addition, the plates are incubated for an additional 48 h at 37 °C, 5% CO2, 95% air, and 100% relative humidity. For adherent cells, the assay is terminated by the addition of cold TCA. Cells are fixed in situ by the gentle addition of […] of cold 50% (w/v) TCA (final concentration,10% TCA) and incubated for 60 min at 4 °C. The supernatant is discarded, and the plates are washed five times with tap water and air dried. Sulforhodamine B (SRB) solution (100 ml) at 0.4% (w/v) in 1% acetic acid is added to each well, and plates are incubated for 10 min at room temperature. After staining, unbound dye is removed by washing five times with 1% acetic acid and the plates are air dried. Bound stain is subsequently dissolved with 10 μM trizma base, and the absorbance is read on an automated plate reader at a wavelength of 515 nm. For suspension cells, the methodology is the same except that the assay is terminated by fixing settled cells at the bottom of the wells by gently adding […] of 80% TCA (final concentration, 16% TCA).
Using the seven absorbance measurements [time zero, (Tz), control growth, (C), and test growth in the presence of drug at the five concentration levels (Ti)], the percentage growth is calculated at each of the drug concentrations levels. Percentage growth inhibition is calculated as: [(Ti -Tz)/(C - Tz)] x 100 for concentrations for which Ti>/ ¼ Tz and [(Ti -Tz) / Tz] x100 for concentrations for which Ti <Tz.
Three dose response parameters are calculated for each experimental agent. Growth inhibition of 50% (GI50) is calculated from [(Ti -Tz)/(C - Tz)] x 100 =50, which is the drug concentration resulting in a 50% reduction in the net protein increase (as measured by SRB staining) in control cells during the drug incubation. The drug concentration resulting in total growth inhibition (TGI) is calculated from Ti ¼ Tz. The LC50 (concentration of drug resulting in a 50% reduction in the measured protein at the end of the drug treatment as compared to that at the beginning) indicating a net loss of cells following treatment is calculated from [(Ti - Tz) / Tz] x100 = -50. Values are calculated for each of these three parameters if the level of activity is reached; however, if the effect is not reached or is exceeded, the value for that parameter is expressed as greater or less than the maximum or minimum concentration tested.

UACC-257 = format: cell-based; conditions: Homo sapiens
TK-10 = format: cell-based, human; conditions: Homo sapiens; TK-10, single dose 10 μM; read-out: percent cell growth promotion
HL-60(TB) = format: cell-based; conditions: Homo sapiens
OVCAR-3 = format: cell-based; conditions: Homo sapiens
SF-268 = format: cell-based; conditions: Homo sapiens
A549/ATCC = format: cell-based; conditions: Homo sapiens
HT29 = format: cell-based; conditions: Homo sapiens, HT-29
PC-3 = format: cell-based; conditions: Homo sapiens
MOLT-4 = format: cell-based; conditions: Homo sapiens
NCI/ADR-RES = format: cell-based; conditions: Homo sapiens
OVCAR-8 = format: cell-based; conditions: Homo sapiens
NCI-H460 = format: cell-based; conditions: Homo sapiens
HCC-2998 = format: cell-based; conditions: Homo sapiens
KM12 = format: cell-based; conditions: Homo sapiens
UO-31 = format: cell-based; conditions: Homo sapiens
HOP-92 = format: cell-based; conditions: Homo sapiens
SK-OV-3 = format: cell-based; conditions: Homo sapiens
[1] = 5 log dose, 48 h, read-out: LC50 (the source's name)
[2] = single dose 10 μM, read-out: percent cell growth promotion

Work on `Clc1ccc(Nc2nnc(COc3ccccc3)c3ccccc23)cc1` [Compound 17a, N-(4-Chlorophenyl)-4-(phenoxymethyl)phthalazin-1-amine] yielded a GI50 (RXF 393; RXF 393, 5 log dose) of 1010 nM, an IC (TGI) (RXF 393; RXF 393, 5 log dose) of 4.97 µM and a CC50 (RXF 393; RXF 393, 5 log dose, 48 h, read-out: LC50 (the source's name)) of 14.4 µM. It also gave an activity at 10 µM (RXF 393; RXF 393, single dose 10 μM, read-out: percent cell growth promotion) of -5.93%, an activity at 10 µM (MDA-MB-468; MDA-MB-468, MDA-MBA-468, single dose 10 μM, read-out: percent cell growth promotion) of -16.9% and a GI50 (MDA-MB-468; MDA-MB-468, 5 log dose) of 1490 nM. The IC (TGI) (MDA-MB-468; MDA-MB-468, 5 log dose) was 7.62 µM, the CC50 (MDA-MB-468; MDA-MB-468, 5 log dose, 48 h, read-out: LC50 (the source's name)) was greater than 25 µM and the GI50 (UACC-257; UACC-257) was 2540 nM. For the same compound, the IC (TGI) (UACC-257; UACC-257, read-out: TGI) was 5.82 µM, the activity at 10 µM (UACC-257; UACC-257, read-out: percent cell growth promotion) was -24.9% and the CC50 (UACC-257; UACC-257, 5 log dose, 48 h, read-out: LC50 (the source's name)) was 13.4 µM. It also gave an activity at 10 µM (TK-10) of -17.5%, a GI50 (HL-60(TB); 5 log dose) of 3.56 µM and an IC (TGI) (HL-60(TB); 5 log dose) of 11.9 µM. The CC50 (HL-60(TB); [1]) was greater than 25 µM, the activity at 10 µM (HL-60(TB); [2]) was -15.7% and the GI50 (OVCAR-3; OVCAR-3, 5 log dose) was 2870 nM. It also gave an IC (TGI) (OVCAR-3; OVCAR-3, 5 log dose) of 9.8 µM, a CC50 (OVCAR-3; OVCAR-3, 5 log dose, 48 h, read-out: LC50 (the source's name)) greater than 25 µM and an activity at 10 µM (OVCAR-3; OVCAR-3, single dose 10 μM, read-out: percent cell growth promotion) of -35.1%. The GI50 (SF-268; SF-268, 5 log dose) was 2230 nM, the IC (TGI) (SF-268; SF-268, 5 log dose) was 12.9 µM and the CC50 (SF-268; SF-268, 5 log dose, 48 h, read-out: LC50 (the source's name)) was greater than 25 µM. The activity at 10 µM (SF-268; SF-268, single dose 10 μM, read-out: percent cell growth promotion) was 13.2%, the GI50 (A549/ATCC; 5 log dose) was 2870 nM and the IC (TGI) (A549/ATCC; 5 log dose) was 12.3 µM. For the same compound, the LC50 (concentration killing 50% of cells) (A549/ATCC; 5 log dose, 48 h) was greater than 25 µM, the activity at 10 µM (A549/ATCC; [2]) was 4.64% and the GI50 (HT29; HT29, 5 log dose) was 420 nM. It also gave an IC (TGI) (HT29; HT29, 5 log dose) of 4.25 µM, a CC50 (HT29; HT29, 5 log dose, 48 h, read-out: LC50 (the source's name)) of 17.4 µM and an activity at 10 µM (HT29; HT29, single dose 10 μM, read-out: percent cell growth promotion) of 1.32%. The GI50 (PC-3; PC-3, 5 log dose) was 1300 nM, the IC (TGI) (PC-3; PC-3, 5 log dose) was 10.1 µM and the CC50 (PC-3; PC-3, 5 log dose, 48 h, read-out: LC50 (the source's name)) was greater than 25 µM. The activity at 10 µM (PC-3; PC-3, single dose 10 μM, read-out: percent cell growth promotion) was -0.2%, the GI50 (MOLT-4; MOLT-4, 5 log dose) was 1060 nM and the IC (TGI) (MOLT-4; MOLT-4, 5 log dose) was 6.7 µM. For the same compound, the CC50 (MOLT-4; MOLT-4, 5 log dose, 48 h, read-out: LC50 (the source's name)) was greater than 25 µM, the activity at 10 µM (MOLT-4; MOLT-4, single dose 10 μM, read-out: percent cell growth promotion) was -32.6% and the GI50 (NCI/ADR-RES; 5 log dose) was 2620 nM. The IC (TGI) (NCI/ADR-RES; 5 log dose) was 16.6 µM, the CC50 (NCI/ADR-RES; [1]) was greater than 25 µM and the activity at 10 µM (NCI/ADR-RES; [2]) was -1.13%. The GI50 (OVCAR-8; OVCAR-8, 5 log dose) was 3.49 µM, the IC (TGI) (OVCAR-8; OVCAR-8, 5 log dose) was 15 µM and the CC50 (OVCAR-8; OVCAR-8, 5 log dose, 48 h, read-out: LC50 (the source's name)) was greater than 25 µM. For the same compound, the activity at 10 µM (OVCAR-8; OVCAR-8, single dose 10 μM, read-out: percent cell growth promotion) was 5.02%, the GI50 (NCI-H460; NCI-H460, 5 log dose) was 2700 nM and the IC (TGI) (NCI-H460; NCI-H460, 5 log dose) was 7.12 µM. The LC50 (concentration causing 50% cell kill) (NCI-H460; NCI-H460, 5 log dose, 48 h) was 18.8 µM, the activity at 10 µM (NCI-H460; NCI-H460, single dose 10 μM, read-out: percent cell growth promotion) was 3.1% and the GI50 (HCC-2998; HCC-2998, 5 log dose) was 3.81 µM. It also gave an IC (TGI) (HCC-2998; HCC-2998, 5 log dose) of 8.36 µM, an LC50 (50% lethal concentration) (HCC-2998; HCC-2998, 5 log dose, 48 h) of 18.3 µM and an activity at 10 µM (HCC-2998; HCC-2998, single dose 10 μM, read-out: percent cell growth promotion) of 8.55%. The GI50 (KM12; KM12, 5 log dose) was 2650 nM, the IC (TGI) (KM12; KM12, 5 log dose) was 7.72 µM and the CC50 (KM12; KM12, 5 log dose, 48 h, read-out: LC50 (the source's name)) was 22.4 µM. The activity at 10 µM (KM12; KM12, single dose 10 μM, read-out: percent cell growth promotion) was 0.18%, the GI50 (UO-31; UO-31, 5 log dose) was 720 nM and the IC (TGI) (UO-31; UO-31, 5 log dose) was 5.2 µM. It also gave a CC50 (UO-31; UO-31, 5 log dose, 48 h, read-out: LC50 (the source's name)) of 23.9 µM, an activity at 10 µM (UO-31; UO-31, single dose 10 μM, read-out: percent cell growth promotion) of -12.3% and a GI50 (HOP-92; HOP-92, 5 log dose) of 330 nM. The IC (TGI) (HOP-92; HOP-92, 5 log dose) was 3.09 µM, the CC50 (HOP-92; HOP-92, 5 log dose, 48 h, read-out: LC50 (the source's name)) was greater than 25 µM and the activity at 10 µM (HOP-92; HOP-92, single dose 10 μM, read-out: percent cell growth promotion) was -28%. For the same compound, the GI50 (SK-OV-3; SK-OV-3, 5 log dose) was 2380 nM, the IC (TGI) (SK-OV-3; SK-OV-3, 5 log dose) was 9.96 µM and the CC50 (SK-OV-3; SK-OV-3, 5 log dose, 48 h, read-out: LC50 (the source's name)) was greater than 25 µM. For the same compound, the activity at 10 µM (SK-OV-3; SK-OV-3, single dose 10 μM, read-out: percent cell growth promotion) was 9.17%.

From article PMC6691788, “Design and synthesis of phthalazine-based compounds as potent anticancer agents with potential antiangiogenic activity via VEGFR-2 inhibition” (Journal of Enzyme Inhibition and Medicinal Chemistry, 2019)
